This is an account of results in paper PMC8955377, “Greener Synthesis of Antiproliferative Furoxans via Multicomponent Reactions” (Molecules, 2022).

In one experiment the test system is T24 cells. The experiment in a line: Antiproliferative activity, sulforhodamine B assay, T24 bladder cancer cells. Conditions: SRB, mean (±SEM). It is filed as cell-based, human. On the procedure: (§1) In vitro antiproliferative activity of the compounds was determined in cells derived from bladder cancer (T24) and prostate cancer (LNCaP). The cells were incubated in the presence of the compounds for 48 h. The antiproliferative activity was determined using the sulforhodamine B assay. The results were expressed as GI50, which is the drug concentration resulting in a 50% reduction of cellular net growth when compared with the values of untreated control cells. The standard anticancer drug cisplatin was used as a positive control, and furoxan 3 and 11a were also included as ⋅NO donor reference compounds. The results are summarized in Table 2 for the Ugi product 7a, Ugi-Fx (8a) and 8b–g Ugi-furoxan derivatives, and GBB product 10 and 12a–e GBB-furoxan derivatives.
(§2) The T24 cells were grown in McCoy’s 5A (Biological Industries) supplemented with 10% FBS (Capricorn Scientific). The cells were passaged twice per week, and the culture medium was changed with the same frequency. The LNCaP cells were maintained in RPMI media (Biological Industries) supplemented with 10% FBS (Capricorn Scientific) and 10% of its own conditioned medium (complete media). The cells were passaged once per week, and the medium was changed with the same frequency. The HaCaT cells (immortalized human keratinocytes) were cultured in Dulbecco’s modified Eagle medium (Biological Industries) supplemented with 10% FBS (Capricorn Scientific). The cells were passaged twice per week, and the medium was changed with the same frequency. The cell cultures were maintained under a humidified 5% CO2 atmosphere at 37 °C.
(§3) For viability assays, cells were treated with a 0.25% Trypsin–0.05% EDTA solution and plated in 96-well plates in complete medium the day before the experiment. The cells were seeded in a 96-well plate at densities of 8 × 10^3 cells per well for T24 cells, 12.5 × 10^3 cells per well for LNCaP cells, and 10 × 10^3 cells per well for HaCaT cells. The cultures were allowed to attach for 24 h in a humidified 5% CO2 atmosphere at 37 °C. Then, the cells were treated with increasing concentrations of the compounds (0.4–100.0 µM) prepared in complete medium using stock solutions in DMSO and were kept for 48 h in a CO2 incubator. Wells with only media or 0.5% DMSO were added as controls. The antiproliferative activity of the compounds was assayed using the SRB method in at least three independent experiments.
On the technique in general: Sulforhodamine B stains cellular protein and so reports cell mass.

For a further experiment, the system named is LNCaP cells. Description: Antiproliferative activity, sulforhodamine B assay, LNCaP prostate cancer cells. The experiment is classed as cell-based, human. Conditions: 48 h, SRB, mean (±SEM). The method, then:
as §1, §2, §3

For another experiment, the system named is HaCaT cells. The experiment in a line: Cytotoxicity in non-cancer keratinocytes, sulforhodamine B assay. It is filed as cell-based. Conditions: HaCaT human keratinocytes, 0.4–100 µM, SRB; mean (±SEM). On the procedure:
As a first approximation of the safety profile of the synthesized compounds and to determine the cytotoxic selectivity against cancer cells, the antiproliferative activity in non-cancer cells was studied. This evaluation was carried out in human keratinocyte HaCaT cells with 0.4–100 µM of the test compounds using the sulforhodamine B assay. The selectivity index (SI) was calculated for these compounds by dividing the GI50 for HaCaT by the GI50 for each cancer cell line. […] The derivatives Ugi-Fx (8a) and 12e stand out, with selectivity indices of 14.5 and 10.8, respectively. […] Concerning the LNCaP prostate cancer cell line, as for the reference drug, no selectivity was observed. […] Therefore, this new GBB-furoxan derivative can be a starting point in the design of new structures with improved selectivity.
as §2, §3

The term GI50 denotes the concentration that inhibits growth by half. Low values mean greater sensitivity of the cells, high ones lower sensitivity of the cells. Turning to `CC(C)(C)Nc1c(-c2cccc(O)c2)nc2ccccn12` [compound 10, N-tert-Butyl-2-(3-hydroxyphenyl)imidazo[1,2-a]pyridin-3-amine], the GI50 with T24 cells (Homo sapiens, T-24, 48 h) is more than 100 µM; in the experiment with LNCaP cells (Homo sapiens), more than 100 µM.
Consider `CC(C)(C)Nc1c(-c2cccc(Oc3no[n+]([O-])c3S(=O)(=O)c3ccccc3)c2)nc2sccn12` [12e, 4-(3-(5-(tert-butylamino)imidazo[2,1-b]thiazol-6-yl)phenoxy)-3-(phenylsulfonyl)-1,2,5-oxadiazole 2-oxide], for which the “GI50 T24” value with T24 cells (48 h) is on record as “sub-micromolar range”. The GI50 in the experiment on T24 cells (Homo sapiens, T-24, 48 h) is 0.83 µM; with LNCaP cells (Homo sapiens) it was 16.5 µM; in the experiment on HaCaT cells, 9.01 µM.
Turning to `CC(C)(C)Nc1c(-c2cccc(Oc3no[n+]([O-])c3S(=O)(=O)c3ccccc3)c2)nc2ccccn12` [12a, 4-(3-(3-(tert-butylamino)imidazo[1,2-a]pyridin-2-yl)phenoxy)-3-(phenylsulfonyl)-1,2,5-oxadiazole 2-oxide], the GI50 came to 1.76 µM in the experiment with T24 cells (Homo sapiens, T-24, 48 h); 24.7 µM in the experiment with LNCaP cells (Homo sapiens); 7.44 µM in the experiment with HaCaT cells.
As for `N.N.[Cl][Pt][Cl]` [Cisplatin, cisplatin, reference compound], the GI50 came out at 3.28 µM with T24 cells (48 h), 20.3 µM in the experiment on LNCaP cells and 2.51 µM with HaCaT cells.
For `CC(C)(C)Nc1c(-c2ccccc2Oc2no[n+]([O-])c2S(=O)(=O)c2ccccc2)nc2ccccn12` [12b, 4-(2-(3-(tert-butylamino)imidazo[1,2-a]pyridin-2-yl)phenoxy)-3-(phenylsulfonyl)-1,2,5-oxadiazole 2-oxide], the “GI50 T24” value with T24 cells (48 h) is recorded as “sub-micromolar range”. Moreover, the GI50 in the experiment with T24 cells (Homo sapiens, T-24, 48 h) was found to be 0.85 µM; in the experiment with LNCaP cells (Homo sapiens), 7.7 µM; in the experiment on HaCaT cells, 3.11 µM.
On to `Cc1ccc(N(C(=O)c2ccccc2Oc2no[n+]([O-])c2S(=O)(=O)c2ccccc2)C(C(=O)NC(C)(C)C)c2ccccc2)cc1` (stereo not drawn) [8b, N-[1-(tert-butylaminocarbonyl)-1-phenylmethyl]-N-(4-methylphenyl)-2-[3-(phenylsulfonyl)-[1,2,5]oxadiazol-4-yl N2-oxide]oxyphenylcarboxamide], for which the 50% growth inhibitory concentration (GI50) in the experiment with T24 cells (Homo sapiens, T-24, 48 h) is 1.83 µM; with LNCaP cells (Homo sapiens) it was 13.3 µM; in the experiment with HaCaT cells it was 3.78 µM.
Regarding `Cc1ccc(N(CC(=O)NC(C)(C)C)C(=O)c2cccc(Oc3no[n+]([O-])c3S(=O)(=O)c3ccccc3)c2)cc1` [8d, N-(1-(tert-butylaminocarbonyl)methyl)-N-(4-methylphenyl)-3-[3-(phenylsulfonyl)-[1,2,5]oxadiazol-4-yl N2-oxide]oxy phenylcarboxamide], the GI50 in the experiment with T24 cells (Homo sapiens, T-24, 48 h) came to 2.1 µM; in the experiment with LNCaP cells (Homo sapiens), 21.8 µM; in the experiment on HaCaT cells, 9.99 µM.
For `O=C(O)c1cccc(Oc2no[n+]([O-])c2S(=O)(=O)c2ccccc2)c1` [compound 3, reference compound] the same measures were 8.6 µM, 32.5 µM and 14.4 µM.
For `Cc1ccc(N(C(=O)c2ccccc2)C(C(=O)NC(C)(C)C)c2cccc(Oc3no[n+]([O-])c3S(=O)(=O)c3ccccc3)c2)cc1` (stereo not drawn) [8g, N-(1-(tert-butylaminocarbonyl)-1-3-[3-(phenylsulfonyl)-[1,2,5]oxadiazol-4-yl N2-oxide]oxyphenylmethyl)-N-(4-methylphenyl)-phenylcarboxamide] the same measures were 1.7 µM, 36.7 µM and 4.99 µM.
For `CCCCN(CC(=O)NC(C)(C)C)C(=O)c1cccc(Oc2no[n+]([O-])c2S(=O)(=O)c2ccccc2)c1` [8f, N-(1-(tert-butylaminocarbonyl)methyl)-N-(butyl)-3-[3-(phenylsulfonyl)-[1,2,5]oxadiazol-4-yl N2-oxide]oxyphenylcarboxamide] the same measures were 2.86 µM, 29.9 µM and 11.8 µM.
As to `CC(C)(C)Nc1c(-c2ccc(Oc3no[n+]([O-])c3S(=O)(=O)c3ccccc3)cc2)nc2ccccn12` [12c, 4-(4-(3-(tert-butylamino)imidazo[1,2-a]pyridin-2-yl)phenoxy)-3-(phenylsulfonyl)-1,2,5-oxadiazole 2-oxide], the GI50 in the experiment on T24 cells (Homo sapiens, T-24, 48 h) came out at 2.99 µM; in the experiment with LNCaP cells (Homo sapiens), 24.2 µM; in the experiment on HaCaT cells, 5.22 µM.
For `O=Cc1cccc(Oc2no[n+]([O-])c2S(=O)(=O)c2ccccc2)c1` [11a, reference compound] the same measures were 7.08 µM, 24.5 µM and 7.83 µM.
For `Cc1ccc(N(C(=O)c2ccc(Oc3no[n+]([O-])c3S(=O)(=O)c3ccccc3)cc2)C(C(=O)NC(C)(C)C)c2ccccc2)cc1` (stereo not drawn) [8c, N-[1-(tert-butylaminocarbonyl)-1-phenylmethyl]-N-(4-methylphenyl)-4-[3-(phenylsulfonyl)-[1,2,5]oxadiazol-4-yl N2-oxide]oxyphenylcarboxamide], the GI50 turned out to be 2.18 µM with T24 cells (Homo sapiens, T-24, 48 h); 18.8 µM in the experiment on LNCaP cells (Homo sapiens); 4.62 µM in the experiment with HaCaT cells.
For `CC(C)(C)Nc1c(-c2cccc(Oc3no[n+]([O-])c3S(=O)(=O)c3ccccc3)c2)nc2cnccn12` [12d, 4-(3-(3-(tert-butylamino)imidazo[1,2-a]pyrazin-2-yl)phenoxy)-3-(phenylsulfonyl)-1,2,5-oxadiazole 2-oxide] the same measures were 2.72 µM, 8.13 µM and 9.84 µM.
For `CCCCN(C(=O)c1cccc(Oc2no[n+]([O-])c2S(=O)(=O)c2ccccc2)c1)C(C(=O)NC(C)(C)C)c1ccccc1` (stereo not drawn) [8e, N-(1-(tert-butylaminocarbonyl)-1-phenylmethyl)-N-(butyl)-3-[3-(phenylsulfonyl)-[1,2,5]oxadiazol-4-yl N2-oxide]oxyphenylcarboxamide], the GI50 in the experiment on T24 cells (Homo sapiens, T-24, 48 h) came to 1.53 µM; in the experiment on LNCaP cells (Homo sapiens), 21.8 µM; in the experiment with HaCaT cells, 11.8 µM.
As to `Cc1ccc(N(C(=O)c2cccc(O)c2)C(C(=O)NC(C)(C)C)c2ccccc2)cc1` (stereo not drawn) [7a, N-(1-(tert-butylaminocarbonyl)-1-phenylmethyl)-N-(4-methylphenyl)-3-hydroxyphenyl carboxamide], the GI50 is more than 100 µM with T24 cells (Homo sapiens, T-24, 48 h) and more than 100 µM in the experiment with LNCaP cells (Homo sapiens).
